Laboratory results: ChEMBL document CHEMBL4130471, “Design and synthesis of tranylcypromine derivatives as novel LSD1/HDACs dual inhibitors for cancer treatment” (Eur J Med Chem, 2017)

Tests used:
[1] = molecular target: T1, Amine oxidase [flavin-containing] B (Homo sapiens, UniProt P27338)
T1 sequence (P27338 whole entry): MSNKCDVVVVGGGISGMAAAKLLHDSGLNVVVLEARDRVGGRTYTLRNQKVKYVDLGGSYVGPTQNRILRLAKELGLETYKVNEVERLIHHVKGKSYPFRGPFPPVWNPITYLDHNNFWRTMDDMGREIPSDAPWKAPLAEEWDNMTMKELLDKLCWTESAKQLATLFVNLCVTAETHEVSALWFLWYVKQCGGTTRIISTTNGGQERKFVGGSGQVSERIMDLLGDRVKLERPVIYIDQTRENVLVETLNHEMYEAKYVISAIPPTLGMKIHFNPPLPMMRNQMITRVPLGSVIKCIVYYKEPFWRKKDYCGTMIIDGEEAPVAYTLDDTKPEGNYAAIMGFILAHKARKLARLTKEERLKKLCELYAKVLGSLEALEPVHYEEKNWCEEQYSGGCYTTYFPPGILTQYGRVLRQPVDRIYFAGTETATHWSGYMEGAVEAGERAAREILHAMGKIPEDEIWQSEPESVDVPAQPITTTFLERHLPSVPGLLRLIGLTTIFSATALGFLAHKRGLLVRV
Description: Inhibition of MAOB (unknown origin) using beetle luciferin as substrate by MAO-Glo assay

[2] = molecular target: T2, Amine oxidase [flavin-containing] A (Homo sapiens, UniProt P21397)
T2 sequence (P21397 whole entry): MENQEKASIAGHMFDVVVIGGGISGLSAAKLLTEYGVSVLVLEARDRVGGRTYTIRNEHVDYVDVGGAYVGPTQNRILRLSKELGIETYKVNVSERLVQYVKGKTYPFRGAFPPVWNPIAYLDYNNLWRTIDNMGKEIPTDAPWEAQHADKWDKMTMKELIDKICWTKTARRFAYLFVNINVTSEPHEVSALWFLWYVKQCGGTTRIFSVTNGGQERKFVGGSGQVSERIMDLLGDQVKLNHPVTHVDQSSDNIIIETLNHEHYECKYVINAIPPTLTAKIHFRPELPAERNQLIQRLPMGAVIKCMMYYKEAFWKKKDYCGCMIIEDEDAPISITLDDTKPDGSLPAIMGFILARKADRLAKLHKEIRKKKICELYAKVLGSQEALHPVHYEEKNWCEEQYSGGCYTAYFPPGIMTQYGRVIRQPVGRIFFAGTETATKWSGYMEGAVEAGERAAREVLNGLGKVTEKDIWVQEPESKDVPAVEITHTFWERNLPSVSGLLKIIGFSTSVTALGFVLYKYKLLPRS
Description: Inhibition of MAOA (unknown origin) using beetle luciferin as substrate by MAO-Glo assay

MGC-803 = test: cells; format: functional, cell-based; conditions: Homo sapiens, MGC-803, 72 h
Description: Antiproliferative activity against human MGC803 cells incubated for 72 hrs by MTT assay

PC-3 = test: cells; format: functional, cell-based; conditions: Homo sapiens, PC-3, 72 h
Description: Antiproliferative activity against human PC3 cells incubated for 72 hrs by MTT assay

Histone deacetylase 1 = Histone deacetylase 1 (Homo sapiens, UniProt Q13547); test: Inhibition of C-terminal His-tagged and C-terminal FLAG-tagged human HDAC1 expressed in baculovirus expression system using Ac-peptide substrate incubated for 15 mins by fluorescence based assay
MCF7 = test: cells; format: functional, cell-based; conditions: Homo sapiens, MCF7, 72 h
Description: Antiproliferative activity against human MCF7 cells incubated for 72 hrs by MTT assay

Histone deacetylase 2 = Histone deacetylase 2 (Homo sapiens, UniProt Q92769)
Description: Inhibition of C-terminal His-tagged full length human HDAC2 expressed in baculovirus expression system using Ac-peptide substrate incubated for 15 mins by fluorescence based assay

A549 = test: cells; format: functional, cell-based; conditions: Homo sapiens, A549, 72 h
Description: Antiproliferative activity against human A549 cells incubated for 72 hrs by MTT assay

Histone deacetylase 5 = Histone deacetylase 5 (Homo sapiens, UniProt Q9UQL6); test: Inhibition of C-terminal His-tagged human HDAC5 (656-1122 residues) expressed in baculovirus expression system using Ac-peptide substrate incubated for 15 mins by fluorescence based assay
[3] = molecular target: Lysine-specific histone demethylase 1A (Homo sapiens, UniProt O60341)
Description: Inhibition of recombinant LSD1 (157 to 852 amino acids) (unknown origin) expressed in Escherichia coli BL21(DE) using H3K4me2 substrate by amplex red and horseradish peroxidase based fluorescence assay

SW-620 = test: cells; format: functional, cell-based; conditions: Homo sapiens, SW-620, 72 h
Description: Antiproliferative activity against human SW620 cells incubated for 72 hrs by MTT assay

Histone deacetylase 5, sequence (Q9UQL6 whole entry, the tested form may be a part): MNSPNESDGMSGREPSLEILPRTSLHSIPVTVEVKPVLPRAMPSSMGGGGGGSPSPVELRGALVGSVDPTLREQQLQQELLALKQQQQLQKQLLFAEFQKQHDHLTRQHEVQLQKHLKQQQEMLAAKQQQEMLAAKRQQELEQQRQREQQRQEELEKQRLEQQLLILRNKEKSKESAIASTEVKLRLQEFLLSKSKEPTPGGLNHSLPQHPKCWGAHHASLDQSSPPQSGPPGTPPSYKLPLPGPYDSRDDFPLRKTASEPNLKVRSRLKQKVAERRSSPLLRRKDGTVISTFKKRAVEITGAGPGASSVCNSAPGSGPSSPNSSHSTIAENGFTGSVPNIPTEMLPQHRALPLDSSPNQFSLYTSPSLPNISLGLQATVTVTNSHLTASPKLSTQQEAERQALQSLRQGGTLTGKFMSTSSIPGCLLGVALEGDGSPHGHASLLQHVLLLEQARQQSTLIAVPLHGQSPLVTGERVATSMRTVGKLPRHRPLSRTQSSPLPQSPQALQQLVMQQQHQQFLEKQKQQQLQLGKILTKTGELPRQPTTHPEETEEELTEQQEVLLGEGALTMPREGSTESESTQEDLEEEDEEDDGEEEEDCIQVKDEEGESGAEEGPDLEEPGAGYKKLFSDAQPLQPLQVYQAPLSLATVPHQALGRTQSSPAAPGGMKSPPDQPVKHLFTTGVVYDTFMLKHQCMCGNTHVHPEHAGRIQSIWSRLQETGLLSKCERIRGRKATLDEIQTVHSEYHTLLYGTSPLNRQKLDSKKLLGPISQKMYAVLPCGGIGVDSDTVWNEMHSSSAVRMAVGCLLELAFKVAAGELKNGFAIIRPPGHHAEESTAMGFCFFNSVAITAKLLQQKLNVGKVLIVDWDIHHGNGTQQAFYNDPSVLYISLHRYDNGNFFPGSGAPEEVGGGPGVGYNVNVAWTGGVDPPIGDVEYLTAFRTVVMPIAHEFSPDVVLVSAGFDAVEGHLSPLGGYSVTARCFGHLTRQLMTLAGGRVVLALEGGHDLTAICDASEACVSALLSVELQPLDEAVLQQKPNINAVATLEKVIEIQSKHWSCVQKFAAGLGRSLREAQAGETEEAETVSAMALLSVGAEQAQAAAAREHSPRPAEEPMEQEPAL
Histone deacetylase 2, sequence (Q92769 whole entry): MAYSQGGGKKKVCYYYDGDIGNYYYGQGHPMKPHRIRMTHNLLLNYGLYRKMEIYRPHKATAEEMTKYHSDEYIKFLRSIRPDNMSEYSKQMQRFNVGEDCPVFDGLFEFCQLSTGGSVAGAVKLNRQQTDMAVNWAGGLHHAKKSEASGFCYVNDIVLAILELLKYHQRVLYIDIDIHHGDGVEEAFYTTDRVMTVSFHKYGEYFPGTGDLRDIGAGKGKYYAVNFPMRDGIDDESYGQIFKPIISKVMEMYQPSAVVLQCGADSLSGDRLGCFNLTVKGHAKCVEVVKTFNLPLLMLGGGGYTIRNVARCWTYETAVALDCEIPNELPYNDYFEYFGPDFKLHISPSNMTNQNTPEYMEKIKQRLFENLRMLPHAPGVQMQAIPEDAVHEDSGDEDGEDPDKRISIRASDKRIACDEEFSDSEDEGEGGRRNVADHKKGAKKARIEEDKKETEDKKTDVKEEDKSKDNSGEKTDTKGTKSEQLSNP
Histone deacetylase 1, sequence (Q13547 whole entry): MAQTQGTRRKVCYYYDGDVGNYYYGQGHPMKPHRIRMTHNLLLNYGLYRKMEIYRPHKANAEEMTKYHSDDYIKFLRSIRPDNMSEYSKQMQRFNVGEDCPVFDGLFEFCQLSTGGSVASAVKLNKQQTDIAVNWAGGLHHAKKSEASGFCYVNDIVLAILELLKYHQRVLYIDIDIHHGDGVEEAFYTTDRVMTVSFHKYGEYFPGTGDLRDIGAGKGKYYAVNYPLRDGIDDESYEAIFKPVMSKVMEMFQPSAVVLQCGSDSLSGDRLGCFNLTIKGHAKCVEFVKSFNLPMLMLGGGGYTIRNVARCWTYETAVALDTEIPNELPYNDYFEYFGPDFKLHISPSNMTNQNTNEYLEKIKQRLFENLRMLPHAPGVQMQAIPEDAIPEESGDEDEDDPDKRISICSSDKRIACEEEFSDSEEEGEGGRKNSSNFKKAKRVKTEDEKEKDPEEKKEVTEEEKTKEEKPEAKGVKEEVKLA

Row | IC50 [1] | IC50 [2] | IC50 (MGC-803) | IC50 (PC-3) | IC50 (Histone deacetylase 1) | IC50 (MCF7) | IC50 (Histone deacetylase 2) | IC50 (A549) | IC50 (Histone deacetylase 5) | IC50 [3] | IC50 (SW-620) | IC50 (Histone deacetylase 5; read-out: IC50) | Structure (SMILES)
1 | > 100 µM | > 100 µM |  |  |  |  |  |  |  |  |  |  | O=C(CCCCCCC(=O)Nc1ccccc1)NO [VORINOSTAT]
2 | > 100 µM | 50.1 µM | 21.5 µM | 21.7 µM | 0.218 µM | 19.5 µM | 0.413 µM | 5.36 µM | Not Active | 7.16 µM | > 32 µM |  | Nc1ccccc1NC(=O)c1ccc(CNC2CC2c2ccccc2)cc1 (centres undefined)
3 | > 100 µM | 39.4 µM | 2.46 µM | 5.62 µM | 0.012 µM | 6.24 µM | 0.025 µM | 1.41 µM |  | 2.21 µM | 4.03 µM | 2.97 µM | O=C(/C=C/c1ccc(CNC2CC2c2ccccc2)cc1)NO (centres undefined)
